Test results as given in US12583889B2, “Cell penetrating peptides” (Oxford University Innovation Limited, priority 2017, dated 2026).
Marks after values point to notes of the source that are not given here.

Key:
[1] = Urinary kidney toxicity markers KIM-1 and NGAL by ELISA after a single IV dose of peptide-PMO conjugate; format: in vivo; settings: 25 mg/kg single IV dose, C57/BL10 female mice
Description: Urinary and serum markers of kidney and liver toxicity were measured following a single dose administration of saline or the relevant peptide-PMO conjugate to 8 week old adult C57/BL10 female mice (N=6 per group). A bolus IV (tail vein) injection was administered and urine collected Day 2 and Day 7 after administration. Animals were then scarified prior to necropsy in which kidney, liver, diaphragm, heart, TA, gastric and serum were collected. Urine clinical indicators: KIM-1, NGAL were measured by ELISA (R&D cat #MKM100) with samples diluted to fit within standard curve. Values were normalised to urinary creatinine levels (Harwell) to account for urine protein concentration.
Group 2—25 mg/kg Pip8b4-PMO SMN
Group 3—25 mg/kg DPEP5.17-PMO SMN

human SMN2-gene = test: Full-length SMN2 transcript qPCR in tissues of adult SMA mice after intravenous peptide-PMO conjugate; format: in vivo
Text: Smn1tm1Hung/wt; […]; […] Tissues were harvested one week post administration. […] Statistical significance determined by Student'[…]≤0.00005. […] ID NO.151), Exons 7-8 Rev: [NT] ID NO.152). […] [NT] ID NO.154). […] PolJ Forward: [NT] ID NO.155); PolJ Reverse: [NT]

[2] = adult SMA mice, 2x15 mg/kg IV approx. 48 hours apart, tissue 7 days post final administration, normalised to saline treated controls, Central Nervous System
[3] = adult SMA mice, 2x15 mg/kg IV approx. 48 hours apart, tissue 7 days post final administration, normalised to saline treated controls, spinal cord

Ac-RXRRBRR FS*RBRXR-B [Peptide 17]
urinary KIM-1 level normalised to creatinine, compared with peptide 6 ([1]; 2 days after administration): far lower | urinary KIM-1 level normalised to creatinine, compared with peptide 6 ([1]; 7 days post administration): lower | urinary NGAL level normalised to creatinine, compared with peptide 6 ([1]; 7 days post administration): lower | activity in cerebellum and cortex compared with peptide 6 (human SMN2-gene; FIG. 7, 2x15 mg/kg IV 48 hours apart, adult intermediate SMA mice): equivalent or improved activity | level of full length transcript (FLSMN) in all tissues (human SMN2-gene; FIG. 7, 2x15 mg/kg IV 48 hours apart, adult intermediate SMA mice, central spinal cord, peripheral skeletal muscle and liver): > 1 fold | cell penetration in several compartments of the central nervous system and the skeletal muscle compared with currently available peptides 1-7 (human SMN2-gene; Table 3 data): increased | full-length SMN2 transcripts, mean expression level, Brainstem (human SMN2-gene; [2]): 1.2 | full-length SMN2 transcripts, mean expression level, Cerebellum (human SMN2-gene; [2]): 1.19* | full-length SMN2 transcripts, mean expression level, Cortex (human SMN2-gene; [2]): 1.27* | full-length SMN2 transcripts, mean expression level, Liver (human SMN2-gene; adult SMA mice, 2x15 mg/kg IV approx. 48 hours apart, tissue 7 days post final administration, normalised to saline treated controls, Off Target): 3.78 | full-length SMN2 transcripts, mean expression level, Gastroc (human SMN2-gene; adult SMA mice, 2x15 mg/kg IV approx. 48 hours apart, tissue 7 days post final administration, normalised to saline treated controls, Skeletal Muscle (gastrocnemius)): 3.25**** | full-length SMN2 transcripts, mean expression level, Quad (human SMN2-gene; adult SMA mice, 2x15 mg/kg IV approx. 48 hours apart, tissue 7 days post final administration, normalised to saline treated controls, Skeletal Muscle (quadriceps)): 2.68*** | full-length SMN2 transcripts, mean expression level, TA (human SMN2-gene; adult SMA mice, 2x15 mg/kg IV approx. 48 hours apart, tissue 7 days post final administration, normalised to saline treated controls, Skeletal Muscle (tibialis anterior)): 3.00*** | full-length SMN2 transcripts, mean expression level, Cervical (human SMN2-gene; [3]): 1.41* | full-length SMN2 transcripts, mean expression level, Lumbar (human SMN2-gene; [3]): 1.1 | full-length SMN2 transcripts, mean expression level, Thoracic (human SMN2-gene; [3]): 1.39** | increase in cell penetration / exon inclusion compared with the currently available peptide conjugated to the same antisense oligonucleotide (human SMN2-gene; in vivo, Table 3 data, peptide 17 versus peptide 6, peptide 14 versus peptide 2): up to 60.2%
